Results reported in ChEMBL document CHEMBL5500341, “Discovery of pyrido[3,2-d]pyrimidin-6(5H)-one derivatives as checkpoint kinase 1 (CHK1) inhibitors with potent antitumor efficacy” (Eur J Med Chem, 2024).

Key:
[1] = Half life in ICR mouse at 2 mg/kg, iv measured up to 24 hrs by LC-MS/MS analysis; type: ADME, organism-based; details: in vivo
[2] = MRT (0 to t) in ICR mouse at 10 mg/kg, po measured up to 24 hrs by LC-MS/MS analysis; type: ADME, organism-based; details: in vivo
[3] = Half life in ICR mouse at 10 mg/kg, po measured up to 24 hrs by LC-MS/MS analysis; type: ADME, organism-based; details: in vivo
[4] = Metabolic stability in human liver microsome assessed as parent compound remaining preincubated with compound for 10 mins followed by NADPH addition and measured at 30 min by LC-MS/MS analysis; type: ADME; details: liver microsomes, time 40 min, read-out: Stability
[5] = Metabolic stability in human liver microsome assessed as parent compound remaining preincubated with compound for 10 mins followed by NADPH addition and measured immediately by LC-MS/MS analysis; type: ADME; details: liver microsomes, read-out: Stability
[6] = Initial plasma concentration in ICR mouse at 2 mg/kg, iv measured up to 24 hrs by LC-MS/MS analysis; type: ADME, organism-based
[7] = Oral bioavailability in ICR mouse at 10 mg/kg measured up to 24 hrs by LC-MS/MS analysis; type: ADME, organism-based; details: in vivo
[8] = MRT (0 to t) in ICR mouse at 2 mg/kg, iv measured up to 24 hrs by LC-MS/MS analysis; type: ADME, organism-based; details: in vivo
HT-29 [9] = assay: Antitumor activity against human HT-29 cells xenografted in female BALB/c mouse assessed as tumor growth inhibition at 30 mg/kg, iv administered once daily for 21 days and measured after 3 days by vernier calipers analysis; details: HT-29, 576 h, read-out: TGI
[10] = molecular target: Serine/threonine-protein kinase Chk2 (Homo sapiens) (UniProt O96017); assay: Inhibition of CHK2 (unknown origin) at 500 nM relative to control
[11] = Volume of distribution at steady state in ICR mouse at 2 mg/kg, iv measured up to 24 hrs by LC-MS/MS analysis; type: ADME, organism-based; details: in vivo, read-out: Vdss
[12] = AUC (0 to infinity) in ICR mouse at 10 mg/kg, po measured up to 24 hrs by LC-MS/MS analysis; type: ADME, organism-based; details: in vivo
[13] = Tmax in ICR mouse at 2 mg/kg, iv measured up to 24 hrs by LC-MS/MS analysis; type: ADME, organism-based; details: in vivo
HT-29 [14] = assay: cells; details: Homo sapiens, HT-29, 72 h
[15] = Metabolic stability in human liver microsome assessed as parent compound remaining preincubated with compound for 10 mins followed by NADPH addition and measured at 60 min by LC-MS/MS analysis; type: ADME; details: liver microsomes, time 70 min, read-out: Stability
[16] = Metabolic stability in human liver microsome assessed as parent compound remaining preincubated with compound for 10 mins followed by NADPH addition and measured at 15 min by LC-MS/MS analysis; type: ADME; details: liver microsomes, time 25 min, read-out: Stability
HCT-116 = assay: cells; details: Homo sapiens, HCT-116, 72 h
Description: Antiproliferative activity against human HCT-116 cells assessed as inhibition of cell proliferation incubated for 72 hrs by CCK-8 assay

HT-29 [17] = assay: Antitumor activity against human HT-29 cells xenografted in female BALB/c mouse assessed as tumor growth inhibition at 30 mg/kg, iv administered once daily for 21 days and measured after 3 days in presence of gemcitabine by vernier calipers analysis; details: HT-29, 576 h, read-out: TGI
[18] = MRT (0 to infinity) in ICR mouse at 10 mg/kg, po measured up to 24 hrs by LC-MS/MS analysis; type: ADME, organism-based; details: in vivo
[19] = Metabolic stability in human microsome assessed as intrinsic clearance preincubated with compound for 10 mins followed by NADPH addition and measured up to 60 min by LC-MS/MS analysis; type: ADME; details: microsomes, time < 70 min, read-out: CLH
[20] = Clearance in ICR mouse at 2 mg/kg, iv measured up to 24 hrs by LC-MS/MS analysis; type: ADME, organism-based; details: in vivo
[21] = Metabolic stability in human liver microsome assessed as half life preincubated with compound for 10 mins followed by NADPH addition and measured up to 60 min by LC-MS/MS analysis; type: ADME; details: liver microsomes, time < 70 min
[22] = Metabolic stability in human liver microsome assessed as parent compound remaining preincubated with compound for 10 mins followed by NADPH addition and measured at 5 min by LC-MS/MS analysis; type: ADME; details: liver microsomes, time 15 min, read-out: Stability
[23] = Cmax in ICR mouse at 10 mg/kg, po measured up to 24 hrs by LC-MS/MS analysis; type: ADME, organism-based; details: in vivo
A549 = assay: cells; details: Homo sapiens, A549, 72 h
Description: Antiproliferative activity against human A549 cells assessed as inhibition of cell proliferation incubated for 72 hrs by CCK-8 assay

A2780 = assay: cells; details: Homo sapiens, A2780, 72 h
Description: Antiproliferative activity against human A2780 cells assessed as inhibition of cell proliferation incubated for 72 hrs by CCK-8 assay

[24] = AUC (0 to t) in ICR mouse at 10 mg/kg, po measured up to 24 hrs by LC-MS/MS analysis; type: ADME, organism-based; details: in vivo
OVCAR-3 = assay: cells; details: Homo sapiens, OVCAR-3, 72 h
Description: Antiproliferative activity against human OVCAR-3 cells assessed as inhibition of cell proliferation incubated for 72 hrs by CCK-8 assay

MV4-11 = assay: Antiproliferative activity against human MV4-11 cells assessed as inhibition of cell proliferation incubated for 72 hrs by CCK-8 assay; type: functional, cell-based; details: MV4-11, 72 h
[25] = MRT (0 to infinity) in ICR mouse at 2 mg/kg, iv measured up to 24 hrs by LC-MS/MS analysis; type: ADME, organism-based; details: in vivo
HT-29 [26] = assay: cells; details: Homo sapiens, HT-29, 72 h; remark: listed apart in the source
Description: Synergistic antiproliferative activity against human HT-29 cells assessed as inhibition of cell proliferation incubated for 72 hrs in presence of gemcitabine by CCK-8 assay

[27] = AUC (0 to t) in ICR mouse at 2 mg/kg, iv measured up to 24 hrs by LC-MS/MS analysis; type: ADME, organism-based; details: in vivo
HT-29 [28] = assay: cells; details: Homo sapiens, HT-29, 72 h; remark: listed apart in the source
Description: Antiproliferative activity against human HT-29 cells assessed as inhibition of cell proliferation incubated for 72 hrs by CCK-8 assay

[29] = Tmax in ICR mouse at 10 mg/kg, po measured up to 24 hrs by LC-MS/MS analysis; type: ADME, organism-based; details: in vivo
[30] = AUC (0 to infinity) in ICR mouse at 2 mg/kg, iv measured up to 24 hrs by LC-MS/MS analysis; type: ADME, organism-based; details: in vivo
[31] = Cmax in ICR mouse at 2 mg/kg, iv measured up to 24 hrs by LC-MS/MS analysis; type: ADME, organism-based; details: in vivo
MDA-MB-468 = assay: cells; details: Homo sapiens, MDA-MB-468, 72 h
Description: Antiproliferative activity against human MDA-MB-468 cells assessed as inhibition of cell proliferation incubated for 72 hrs by CCK-8 assay

HL-60 = assay: cells; details: Homo sapiens, HL-60, 72 h
Description: Antiproliferative activity against human HL-60 cells assessed as inhibition of cell proliferation incubated for 72 hrs by CCK-8 assay

[32] = Metabolic stability in human liver microsome assessed as intrinsic clearance preincubated with compound for 10 mins followed by NADPH addition and measured up to 60 min by LC-MS/MS analysis; type: ADME; details: liver microsomes, time < 70 min, read-out: CLH
[33] = Toxicity in female BALB/c mouse xenografted with human HT-29 cells assessed as change in body weight at 30 mg/kg, iv administered once daily for 21 days and measured after 3 days; type: organism-based; details: in vivo, 576 h, time 24 day

Serine/threonine-protein kinase Chk2 (Homo sapiens), sequence (O96017 whole entry): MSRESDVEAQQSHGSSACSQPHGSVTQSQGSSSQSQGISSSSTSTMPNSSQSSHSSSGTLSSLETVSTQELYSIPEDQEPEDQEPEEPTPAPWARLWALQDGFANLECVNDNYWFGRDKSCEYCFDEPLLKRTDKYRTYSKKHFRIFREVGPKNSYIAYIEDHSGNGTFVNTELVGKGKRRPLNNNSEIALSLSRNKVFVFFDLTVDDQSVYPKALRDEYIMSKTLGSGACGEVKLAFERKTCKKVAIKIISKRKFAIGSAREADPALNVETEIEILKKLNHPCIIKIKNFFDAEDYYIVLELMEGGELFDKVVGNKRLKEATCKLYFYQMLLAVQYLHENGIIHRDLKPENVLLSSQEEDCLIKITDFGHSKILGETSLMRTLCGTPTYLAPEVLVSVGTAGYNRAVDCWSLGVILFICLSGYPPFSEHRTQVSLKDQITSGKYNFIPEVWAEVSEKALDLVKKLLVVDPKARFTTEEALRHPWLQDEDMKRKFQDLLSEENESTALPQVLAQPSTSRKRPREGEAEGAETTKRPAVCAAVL

Work on `N#Cc1ncc(Nc2ncc3c(ccc(=O)n3CC(F)F)n2)cc1N[C@@H]1CCNC1` yielded a half-life [1] of 5.7 h, an MRT last at 24 h [2] of 1 h and a half-life [3] of 1.51 h. The remaining at 0.5 h [4] was 8.93%, the remaining at 0 min [5] was 100% and the C0 at 24 h [6] was 860 ng/mL. The bioavailability [7] was 2.77%, the MRT last at 24 h [8] was 2.67 h and the inhibition in vivo at 30 mg/kg (HT-29 [9]) was 20.6%. It also gave an inhibition [10] of 22%, a Vd [11] of 23.3 L/kg and an AUC(0-inf) [12] of 47.3 ng·h/mL. The Tmax [13] was 4.8 min, the IC50 (HT-29 [14]) was 63.5 nM and the remaining at 1 h [15] was 1.96%. The remaining at 0.25 h [16] was 24.4%, the IC50 (HCT-116) was > 10000 nM and the inhibition in vivo at 30 mg/kg (HT-29 [17]) was 42.8%. The MRT inf [18] was 1.65 h, the microsomal CLint [19] was 129 µL/min/mg and the clearance [20] was 98.4 mL/min/kg. The half-life [21] was 0.18 h, the remaining at 5 min [22] was 60.1% and the Cmax [23] was 81.1 ng/mL. For the same compound, the IC50 (A549) was > 10000 nM, the IC50 (A2780) was > 10000 nM and the AUC(0-t) at 24 h [24] was 40.7 ng·h/mL. It also gave an IC50 (OVCAR-3) of 606 nM, an IC50 (MV4-11) of 202 nM and an MRT inf [25] of 3.91 h. For the same compound, the IC50 (HT-29 [26]) was 63.5 nM, the AUC(0-t) at 24 h [27] was 327 ng·h/mL and the IC50 (HT-29 [28]) was 1170 nM. It also gave a Tmax [29] of 4.8 min, an AUC(0-inf) [30] of 341 ng·h/mL and a Cmax [31] of 526 ng/mL. For the same compound, the IC50 (MDA-MB-468) was > 10000 nM, the IC50 (HL-60) was > 10000 nM and the CLint scaled [32] was 116 mL/min/kg. The Activity [33] was “Non-Toxic”.
